{"source": "patent US20100144779A1", "about": "“Marine Alkalod Makaluvamines and Derivatives Thereof” (THE UAB RESEARCH FOUNDATION, priority 2007, published 2010)", "assay_in_all_cases": "NCI60 cell line screen (SRB)", "type_in_all_cases": "cell-based, human", "key": {"[1]": {"system": "786-0", "settings": "786-0, Renal Cancer; 48 h", "procedure": "(§1) This panel implements the NCI60 cell line screen, including leukemia, non-small cell lung cancer, colon cancer, central nervous system cancer, melanoma, ovarian cancer, renal cancer, prostate cancer and breast cancer. The cell lines tested are specified in Table 3.\n(§2) Generally, the human tumor cell lines of the cancer screening panel are grown in RPMI 1640 medium containing 5% fetal bovine serum and 2 mM L-glutamine. For a typical screening experiment, cells are inoculated into 96 well microtiter plates in 100 μL at plating densities ranging from 5,000 to 40,000 cells/well depending on the doubling time of individual cell lines. After cell inoculation, the microtiter plates are incubated at 37° C., 5% CO2, 95% air and 100% relative humidity for 24 h prior to addition of experimental drugs. After 24 h, two plates of each cell line are fixed in situ with TCA, to represent a measurement of the cell population for each cell line at the time of drug addition (Tz). Experimental drugs are solubilized in dimethyl sulfoxide at 400-fold the desired final maximum test concentration and stored frozen prior to use. At the time of drug addition, an aliquot of frozen concentrate is thawed and diluted to twice the desired final maximum test concentration with complete medium containing 50 μg/ml gentamicin. Additional four, 10-fold or ½ log serial dilutions are made to provide a total of five drug concentrations plus control. Aliquots of 100 μl of these different drug dilutions are added to the appropriate microtiter wells already containing 100 μl of medium, resulting in the required final drug concentrations.\n(§3) Following drug addition, the plates are incubated for an additional 48 h at 37° C., 5% CO2, 95% air, and 100% relative humidity. For adherent cells, the assay is terminated by the addition of cold TCA. Cells are fixed in situ by the gentle addition of 50 μl of cold 50% (w/v) TCA (final concentration, 10% TCA) and incubated for 60 minutes at 4° C. The supernatant is discarded, and the plates are washed five times with tap water and air dried. Sulforhodamine B (SRB) solution (100 μl) at 0.4% (w/v) in 1% acetic acid is added to each well, and plates are incubated for 10 minutes at room temperature. After staining, unbound dye is removed by washing five times with 1% acetic acid and the plates are air dried. Bound stain is subsequently solubilized with 10 mM trizma base, and the absorbance is read on an automated plate reader at a wavelength of 515 nm. For suspension cells, the methodology is the same except that the assay is terminated by fixing settled cells at the bottom of the wells by gently adding 50 μl of 80% TCA (final concentration, 16% TCA). Using the seven absorbance measurements (time zero, Tz, control growth, (control), and test growth in the presence of drug at the five concentration levels (Ti)), the percentage growth is calculated at each of the drug concentrations levels. Percentage growth inhibition is calculated as:\n(§4) [(Ti−Tz)/(C−Tz)]×100 for concentrations for which Ti>/=Tz\n(§5) [(Ti−Tz)/Tz]×100 for concentrations for which Ti<Tz."}, "[2]": {"system": "ACHN", "settings": "Renal Cancer, 48 h", "procedure": "as §1, §2, §3, §4, §5"}, "[3]": {"system": "BT-459", "settings": "BT-459, Breast Cancer; 48 h", "procedure": "as §1, §2, §3, §4, §5"}, "[4]": {"system": "CAKI-1", "settings": "CAKI-1, Renal Cancer; 48 h", "procedure": "as §1, §2, §3, §4, §5"}, "[5]": {"system": "CCRF-CEM", "settings": "Leukemia, 48 h", "procedure": "as §1, §2, §3, §4, §5"}, "[6]": {"system": "COLO 205", "settings": "COLO 205, Colon Cancer; 48 h", "procedure": "as §1, §2, §3, §4, §5"}, "[7]": {"system": "DU-145", "settings": "DU-145, Prostate Cancer; 48 h", "procedure": "as §1, §2, §3, §4, §5"}, "[8]": {"system": "HCT-15", "settings": "HCT-15, Colon Cancer; 48 h", "procedure": "as §1, §2, §3, §4, §5"}, "[9]": {"system": "HOP-62", "settings": "HOP-62, Non-Small Cell Lung Cancer; 48 h", "procedure": "as §1, §2, §3, §4, §5"}, "[10]": {"system": "HOP-92", "settings": "HOP-92, Non-Small Cell Lung Cancer; 48 h", "procedure": "as §1, §2, §3, §4, §5"}, "[11]": {"system": "KM12", "settings": "KM12, Colon Cancer; 48 h", "procedure": "as §1, §2, §3, §4, §5"}, "[12]": {"system": "M14", "settings": "M14, Melanoma; 48 h", "procedure": "as §1, §2, §3, §4, §5"}, "[13]": {"system": "MALME-3M", "settings": "Melanoma, 48 h", "procedure": "as §1, §2, §3, §4, §5"}, "[14]": {"system": "MOLT-4", "settings": "MOLT-4, Leukemia; 48 h", "procedure": "as §1, §2, §3, §4, §5"}, "[15]": {"system": "NCI-H23", "settings": "NCI-H23, Non-Small Cell Lung Cancer; 48 h", "procedure": "as §1, §2, §3, §4, §5"}, "[16]": {"system": "NCI-H552", "settings": "NCI-H552, Non-Small Cell Lung Cancer; 48 h", "procedure": "as §1, §2, §3, §4, §5"}, "[17]": {"system": "OVCAR5", "settings": "OVCAR5, Ovarian Cancer; 48 h", "procedure": "as §1, §2, §3, §4, §5"}, "[18]": {"system": "RPMO-8226", "settings": "RPMO-8226, Leukemia; 48 h", "procedure": "as §1, §2, §3, §4, §5"}, "[19]": {"system": "RXF 393", "settings": "RXF 393, Renal Cancer; 48 h", "procedure": "as §1, §2, §3, §4, §5"}, "[20]": {"system": "SF-295", "settings": "SF-295, CNS Cancer; 48 h", "procedure": "as §1, §2, §3, §4, §5"}, "[21]": {"system": "SK-MEL-28", "settings": "SK-MEL-28, Melanoma; 48 h", "procedure": "as §1, §2, §3, §4, §5"}, "[22]": {"system": "SN12C", "settings": "Renal Cancer, 48 h", "procedure": "as §1, §2, §3, §4, §5"}, "[23]": {"system": "SNB-75", "settings": "SNB-75, CNS Cancer; 48 h", "procedure": "as §1, §2, §3, §4, §5"}, "[24]": {"system": "TK-10", "settings": "TK-10, Renal Cancer; 48 h", "procedure": "as §1, §2, §3, §4, §5"}, "[25]": {"system": "U251", "settings": "U251, CNS Cancer; 48 h", "procedure": "as §1, §2, §3, §4, §5"}, "[26]": {"system": "UO-31", "settings": "UO-31, Renal Cancer; 48 h", "procedure": "as §1, §2, §3, §4, §5"}}, "data": [{"smiles": "O=C1C(NCc2ccccc2)=CC2=NCCc3c[nH]c1c32", "note": "[Compound 4c]", "values": [{"measurement": "GI50", "setting": "[1]", "value": 3.22, "unit": "µM"}, {"measurement": "GI50", "setting": "[2]", "value": 2.8, "unit": "µM"}, {"measurement": "GI50", "setting": "[3]", "value": 4.58, "unit": "µM"}, {"measurement": "GI50", "setting": "[4]", "value": 0.298, "unit": "µM"}, {"measurement": "GI50", "setting": "[5]", "value": 0.9, "unit": "µM"}, {"measurement": "GI50", "setting": "[6]", "value": 0.378, "unit": "µM"}, {"measurement": "GI50", "setting": "[7]", "value": 1.79, "unit": "µM"}, {"measurement": "GI50", "setting": "[8]", "value": 1.39, "unit": "µM"}, {"measurement": "GI50", "setting": "[9]", "value": 3.7, "unit": "µM"}, {"measurement": "GI50", "setting": "[10]", "value": 0.308, "unit": "µM"}, {"measurement": "GI50", "setting": "[11]", "value": 2.06, "unit": "µM"}, {"measurement": "GI50", "setting": "[12]", "value": 1.28, "unit": "µM"}, {"measurement": "GI50", "setting": "[13]", "value": 0.3, "unit": "µM"}, {"measurement": "GI50", "setting": "[14]", "value": 0.315, "unit": "µM"}, {"measurement": "GI50", "setting": "[15]", "value": 1.47, "unit": "µM"}, {"measurement": "GI50", "setting": "[16]", "value": 1.69, "unit": "µM"}, {"measurement": "GI50", "setting": "[17]", "value": 2.67, "unit": "µM"}, {"measurement": "GI50", "setting": "[18]", "value": 1.36, "unit": "µM"}, {"measurement": "GI50", "setting": "[19]", "value": 2.09, "unit": "µM"}, {"measurement": "GI50", "setting": "[20]", "value": 1.12, "unit": "µM"}, {"measurement": "GI50", "setting": "[21]", "value": 7.42, "unit": "µM"}, {"measurement": "GI50", "setting": "[22]", "value": 1.89, "unit": "µM"}, {"measurement": "GI50", "setting": "[23]", "value": 1.65, "unit": "µM"}, {"measurement": "GI50", "setting": "[24]", "value": 4.72, "unit": "µM"}, {"measurement": "GI50", "setting": "[25]", "value": 2.66, "unit": "µM"}, {"measurement": "GI50", "setting": "[26]", "value": 2.63, "unit": "µM"}]}]}
